Test results taken from US20260083851A1 (AVILAR THERAPEUTICS, INC., priority 2022, published 2026).
Like-named read-outs stand apart in the source and are kept apart here. Starred links: 1 amine or outer side, 2 acyl side, 3 side chain; linkers in the order of their positions; H or OH if unused. Positions of bridges follow the written chain, without caps; N, C: chain ends. Non-standard residues stand in square brackets, D forms with d. Residues, ends and D or L forms follow the SMILES beside them. ξ: configuration not given here. *: point of attachment. X1 = O=C(CCOCC(COCCC(=O)NCCOCCOCCOCCOCC1OCC(Nc2cncc(C(F)(F)F)n2)C(O)C1O)NCC(=O)*)NCCOCCOCCOCCOCC1OCC(Nc2cncc(C(F)(F)F)n2)C(O)C1O; ξPro(4ξ-NH2) = O=C(C1CC(N[*:3])CN1[*:1])[*:2]

Key:
HepG2 cells = experiment: Cellular uptake assay (high-content imaging); type: cell-based, human; settings: 100 nM AF488-labeled antibody, 6 hours at 37° C., the 25th table, read-out: Uptake EC50
Excerpt: The cellular uptake assay is designed to measure compound-mediated cellular uptake of fluorescently labeled antibody following ternary complex formation with the ASGPR receptor and endocytosis of the entire complex into cells. The optimal concentration of compound will result in the maximum number of cells with intracellular antibody and is represented as the peak ratio of antibody-positive cells over the total number of cells. As with the ternary complex formation assay, too much or too little compound will result in suboptimal complex formation and fewer cells will have measurable intracellular fluorescence.
Human IgG (Sigma-Aldrich, 14506) was covalently labeled with Alexa Fluor 488 using the Alexa Fluor™ 488 Protein Labeling Kit (Thermo Fisher, A10235) following the manufacturer's instructions. HepG2 cells were plated in DMEM supplemented with 10% FBS at 5,000 cells per well in a 96-well microtiter plate and incubated for approximately 18 hours at 37° C./5% CO2. For studies using human IgG, 100 nM AF488-labeled human IgG antibodies and serial dilutions of IgG-based degrader (0.1% DMSO final concentration) were added to the cells and the mixture was incubated at 37° C. for 6 hours. For studies using DNP, 100 nM AF488-labeled DNP antibodies and serial dilutions of DNP-based degrader (0.1% DMSO final concentration) were added to the cells and the mixture was incubated at 37° C. for 6 hours. HepG2 cells were fixed in 100% methanol at −20° C. for 20 min, washed 3× with PBS, then stained with DAPI (Thermo, Cat #H3570). HepG2 cells were imaged for DAPI and Alexa Fluor 488 using the Operetta CLS, high-content analysis system (PerkinElmer). Data is presented as the ratio of the number of cells positive for hIgG or DNP (AF-488 fluorescence) over the total cell number (measured by DAPI).

IgG = IgG SPR binding; settings: second table, read-out: IgG KD
ASGPR = target: T1, ASGPR (Homo sapiens, UniProt P07306); experiment: ASGPR SPR binding
T1 construct: biotin (biotinylated)
T1 sequence (P07306 1-291): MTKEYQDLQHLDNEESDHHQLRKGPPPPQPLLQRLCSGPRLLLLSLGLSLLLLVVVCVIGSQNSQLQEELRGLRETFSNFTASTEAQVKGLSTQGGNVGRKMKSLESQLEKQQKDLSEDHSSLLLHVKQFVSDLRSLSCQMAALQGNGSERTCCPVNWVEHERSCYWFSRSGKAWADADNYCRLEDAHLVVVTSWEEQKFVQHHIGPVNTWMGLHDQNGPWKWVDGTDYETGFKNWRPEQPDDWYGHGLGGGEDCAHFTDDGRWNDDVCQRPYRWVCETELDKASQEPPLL

[1] = target: T2, ASGPR receptor on HepG2 cells (ternary complex with AF488-labeled antibody) (Homo sapiens, UniProt P07306); experiment: Ternary complex formation assay (flow cytometry, cell-associated AF488 fluorescence); type: cell-based
T2 construct: host or cells: HepG2
T2 sequence (P07306 1-291): T1 sequence (P07306 1-291)
T2 sequence (P07307 1-311 partner): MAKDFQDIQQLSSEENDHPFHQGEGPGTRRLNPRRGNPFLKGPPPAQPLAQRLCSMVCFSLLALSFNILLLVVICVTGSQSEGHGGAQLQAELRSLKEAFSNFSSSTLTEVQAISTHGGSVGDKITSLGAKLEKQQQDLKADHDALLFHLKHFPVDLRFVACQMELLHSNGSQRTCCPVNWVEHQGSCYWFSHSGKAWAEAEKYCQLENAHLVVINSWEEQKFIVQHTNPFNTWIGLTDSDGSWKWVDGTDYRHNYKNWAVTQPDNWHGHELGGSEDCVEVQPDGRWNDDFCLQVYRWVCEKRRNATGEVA
Description: Human IgG (Sigma-Aldrich, 14506) was covalently labeled with Alexa Fluor 488 using the Alexa Fluor™ 488 Protein Labeling Kit (Thermo Fisher, A10235) following the manufacturer's instructions. HepG2 cells (ATCC, HB-8065) were cultured to about 70% confluence and harvested by trypsinization. Single cell suspensions of HepG2 cells were plated in 96 well plates at 1×10^5 cells/well in cell culture media (DMEM supplemented with 10% FBS) and placed at 4° C. For studies using human IgG, cells were incubated with 100 nM AF488-labeled anti-human IgG and serial dilutions of IgG-based degrader for 1 hour at 4° C. For studies using DNP, cells were incubated with 100 nM AF488-labeled polyclonal rabbit anti-dinitrophenyl (DNP) antibodies (ThermoFisher) and serial dilutions of DNP-based degrader for 1 hour at 4° C. After washing once with ice-cold PBS containing 0.1% BSA and 0.1% sodium azide, cells were resuspended in 150 uL PBS+0.1% BSA and cell-associated AF488 fluorescence was measured by flow cytometry using the iQue® Screener PLUS Flow Cytometer (IntelliCyt). […]

[2] = read-out: ASGPR KD, second table
[3] = read-out: TCF EC50, 100 nM AF488-labeled antibody, 1 hour at 4° C., the 25th table, class symbols
[4] = second table, read-out: ASGPR KD
[5] = 100 nM AF488-labeled antibody, 1 hour at 4° C., the 25th table, class symbols, read-out: TCF EC50

| Kd (IgG) [µM] | Kd (ASGPR; [4]) [µM] | EC50 [1, 5] [nM] | SMILES | EC50 [1, 3] [nM] | also measured |
| --- | --- | --- | --- | --- | --- |
| < 0.1 |  |  | CC(C)C[C@@H]1NC(=O)[C@H](Cc2cnc[nH]2)NC(=O)[C@H](Cc2c[nH]c3ccccc23)NC(=O)[C@H](C)NC(=O)[C@@H]2CSSC[C@H](NC(=O)[C@H](Cc3c[nH]c4ccccc34)NC(=O)[C@H](C(C)C)NC(=O)[C@H](CC(C)C)NC(=O)[C@H](CCC(=O)O)NC(=O)CNC1=O)C(=O)N[C@@H]([C@@H](C)O)C(=O)N1CCC[C@@H]1C(=O)N1C[C@@H](NC(=O)c3ccc4c(c3)C(=O)c3cc(C(=O)NC[C@H]5OC[C@H](Nc6cncc(C(F)(F)F)n6)[C@@H](O)[C@H]5O)ccc3-4)C[C@H]1C(=O)N[C@@H](CC(=O)O)C(=O)N2 [compound 40] |  | EC50 (HepG2 cells; Homo sapiens, class symbols): 100 to 500 nM |
| < 0.1 | < 0.1 | < 100 | CC(C)CC1NC(=O)C(Cc2cnc[nH]2)NC(=O)C(Cc2c[nH]c3ccccc23)NC(=O)C(C)NC(=O)C2CSSCC(NC(=O)C(Cc3c[nH]c4ccccc34)NC(=O)C(C(C)C)NC(=O)C(CC(C)C)NC(=O)C(CCC(=O)O)NC(=O)CNC1=O)C(=O)NC(C(C)O)C(=O)N1CCCC1C(=O)N1CC(NC(=O)CCCc3cn(CCCCCC(=O)NC(COCCC(=O)NCCOCC4OCC(Nc5nccc(C(F)(F)F)n5)C(O)C4O)COCCC(=O)NCCOCC4OCC(Nc5nccc(C(F)(F)F)n5)C(O)C4O)nn3)CC1C(=O)NC(CC(=O)O)C(=O)N2 (stereo not drawn) [compound 76] |  |  |
|  |  |  | COC1O[C@H](Cn2cc(CCCC(=O)N[C@H]3C[C@H]4C(=O)N[C@@H](CC(=O)O)C(=O)N[C@H]5CSSC[C@H](NC(=O)[C@H](Cc6c[nH]c7ccccc67)NC(=O)[C@H](C(C)C)NC(=O)[C@H](CC(C)C)NC(=O)[C@H](CCC(=O)O)NC(=O)CNC(=O)[C@H](CC(C)C)NC(=O)[C@H](Cc6cnc[nH]6)NC(=O)[C@H](Cc6c[nH]c7ccccc67)NC(=O)[C@H](C)NC5=O)C(=O)N[C@@H]([C@@H](C)O)C(=O)N5CCC[C@@H]5C(=O)N4C3)nn2)[C@H](O)[C@H](O)[C@H]1NC(C)=O (stereo partly drawn) [compound 80] |  | EC50 (HepG2 cells; Homo sapiens, numeric bounds, nM from footnote): > 10000 nM; EC50 ([1]; 100 nM AF488-labeled antibody, 1 hour at 4° C., the 25th table, numeric bounds, nM from footnote, read-out: TCF EC50): > 4360 nM |
| < 0.1 | < 0.1 | < 100 | CC(C)CC1NC(=O)C(Cc2cnc[nH]2)NC(=O)C(Cc2c[nH]c3ccccc23)NC(=O)C(C)NC(=O)C2CSSCC(NC(=O)C(Cc3c[nH]c4ccccc34)NC(=O)C(C(C)C)NC(=O)C(CC(C)C)NC(=O)C(CCC(=O)O)NC(=O)CNC1=O)C(=O)NC(C(C)O)C(=O)N1CCCC1C(=O)N1CC(NC(=O)CCOCCOCCOCCOCCNC(=O)CCCc3cn(CCCCCC(=O)NC(COCCC(=O)NCCOCCOCCOCCOCC4OCC(Nc5cncc(C(F)(F)F)n5)C(O)C4O)COCCC(=O)NCCOCCOCCOCCOCC4OCC(Nc5cncc(C(F)(F)F)n5)C(O)C4O)nn3)CC1C(=O)NC(CC(=O)O)C(=O)N2 (stereo not drawn) [compound 82] |  |  |
| < 0.1 | < 0.1 | < 100 | CC(C)CC1NC(=O)C(Cc2cnc[nH]2)NC(=O)C(Cc2c[nH]c3ccccc23)NC(=O)C(C)NC(=O)C2CSSCC(NC(=O)C(Cc3c[nH]c4ccccc34)NC(=O)C(C(C)C)NC(=O)C(CC(C)C)NC(=O)C(CCC(=O)O)NC(=O)CNC1=O)C(=O)NC(C(C)O)C(=O)N1CCCC1C(=O)N1CC(NC(=O)CCOCCOCCOCCOCCNC(=O)CCCc3cn(CCCCCC(=O)NC(COCCC(=O)NCCOCCOCCOCCOCC4OCC(Nc5nccc(C(F)(F)F)n5)C(O)C4O)(COCCC(=O)NCCOCCOCCOCCOCC4OCC(Nc5nccc(C(F)(F)F)n5)C(O)C4O)COCCC(=O)NCCOCCOCCOCCOCC4OCC(Nc5nccc(C(F)(F)F)n5)C(O)C4O)nn3)CC1C(=O)NC(CC(=O)O)C(=O)N2 (stereo not drawn) [compound 88] |  |  |

| SMILES | Kd (IgG) [µM] | Kd (ASGPR; [4]) [µM] | EC50 [1, 5] [nM] | EC50 [1, 3] [nM] | also measured |
| --- | --- | --- | --- | --- | --- |
| CC(C)CC1NC(=O)C(C)NC(=O)CNC(=O)C(CC(C)C)NC(=O)C(Cc2cnc[nH]2)NC(=O)C(Cc2c[nH]c3ccccc23)NC(=O)C(C)NC(=O)C2CSSCC(NC(=O)C(Cc3c[nH]c4ccccc34)NC(=O)C(C(C)C)NC1=O)C(=O)NC(C(C)O)C(=O)N1CCCC1C(=O)N1CC(NC(=O)CNC(COCCC(=O)NCCOCCOCCOCCOCC3OCC(Nc4cncc(C(F)(F)F)n4)C(O)C3O)COCCC(=O)NCCOCCOCCOCCOCC3OCC(Nc4cncc(C(F)(F)F)n4)C(O)C3O)CC1C(=O)NC(CC(N)=O)C(=O)N2 (stereo not drawn) [compound 74] (cyclo(GALVWCTP[ξPro(4ξ-NH2)](X1)NCAWHL); disulfide 6-11; configuration not given here) | < 0.1 |  |  | < 100 | Kd (ASGPR; [2]): < 0.1 µM |
| CC(C)CC1NC(=O)C(Cc2cnc[nH]2)NC(=O)C(Cc2c[nH]c3ccccc23)NC(=O)C(C)NC(=O)C2CSSCC(NC(=O)C(Cc3c[nH]c4ccccc34)NC(=O)C(C(C)C)NC(=O)C(CC(C)C)NC(=O)C(CCC(=O)O)NC(=O)CNC1=O)C(=O)NC(C(C)O)C(=O)N1CCCC1C(=O)N1CC(NC(=O)CCCc3cn(CC4OCC(Nc5cncc(C(F)(F)F)n5)C(O)C4O)nn3)CC1C(=O)NC(CC(=O)O)C(=O)N2 (stereo not drawn) [compound 78] | < 0.1 | < 0.1 |  | < 100 |  |
| CC(C)C[C@@H]1NC(=O)[C@H](Cc2cnc[nH]2)NC(=O)[C@H](Cc2c[nH]c3ccccc23)NC(=O)[C@H](C)NC(=O)[C@@H]2CSSC[C@H](NC(=O)[C@H](Cc3c[nH]c4ccccc34)NC(=O)[C@H](C(C)C)NC(=O)[C@H](CC(C)C)NC(=O)[C@H](CCC(=O)O)NC(=O)CNC1=O)C(=O)N[C@@H]([C@@H](C)O)C(=O)N1CCC[C@@H]1C(=O)N1C[C@@H](NC(=O)CCOCCOCCOCCOCCNC(=O)CCCc3cn(CCCCCC(=O)NC(COCCC(=O)NCCO[C@@H]4O[C@H](CO)[C@H](O)[C@H](O)[C@H]4Nc4cncc(C(F)(F)F)n4)COCCC(=O)NCCO[C@@H]4O[C@H](CO)[C@H](O)[C@H](O)[C@H]4Nc4cncc(C(F)(F)F)n4)nn3)C[C@H]1C(=O)N[C@@H](CC(=O)O)C(=O)N2 [compound 84] |  |  | < 100 |  | EC50 (HepG2 cells; class symbols): < 100 nM |
| CC(=O)NC1C(OCCOCCOCCOCCNC(=O)CCOCC(COCCC(=O)NCCOCCOCCOCCOC2OC(CO)C(O)C(O)C2NC(C)=O)(COCCC(=O)NCCOCCOCCOCCOC2OC(CO)C(O)C(O)C2NC(C)=O)NC(=O)CCCCCn2cc(CCCC(=O)NCCOCCOCCOCCOCCC(=O)NC3CC4C(=O)NC(CC(=O)O)C(=O)NC5CSSCC(NC(=O)C(Cc6c[nH]c7ccccc67)NC(=O)C(C(C)C)NC(=O)C(CC(C)C)NC(=O)C(CCC(=O)O)NC(=O)CNC(=O)C(CC(C)C)NC(=O)C(Cc6cnc[nH]6)NC(=O)C(Cc6c[nH]c7ccccc67)NC(=O)C(C)NC5=O)C(=O)NC(C(C)O)C(=O)N5CCCC5C(=O)N4C3)nn2)OC(CO)C(O)C1O (stereo not drawn) [compound 87] | < 0.1 |  |  | > 1000 | Kd (ASGPR; [2]): > 1 µM |
